According to ChEMBL document CHEMBL2062394, “Azide-alkyne cycloaddition en route to novel 1H-1,2,3-triazole tethered isatin conjugates with in vitro cytotoxic evaluation” (Eur J Med Chem, 2012):

Experiments:
[1] = test system: PC-3; assay: Growth inhibition of human PC3 cells at 1 uM after 48 hrs by SRB assay; type: functional; conditions: PC-3, 48 h, read-out: GI
[2] = test system: A549; assay: Growth inhibition of human A549 cells at 1 uM after 48 hrs by SRB assay; type: functional; conditions: A549, 48 h, read-out: GI
[3] = test system: THP-1; assay: Growth inhibition of human THP1 cells at 10 uM after 48 hrs by SRB assay; type: functional; conditions: THP-1, 48 h, read-out: GI
[4] = test system: A549; assay: Growth inhibition of human A549 cells at 50 uM after 48 hrs by SRB assay; type: functional; conditions: A549, 48 h, read-out: GI
[5] = test system: Caco-2; assay: Growth inhibition of human Caco2 cells at 50 uM after 48 hrs by SRB assay; type: functional; conditions: Caco-2, 48 h, read-out: GI
[6] = test system: PC-3; assay: Growth inhibition of human PC3 cells after 48 hrs by SRB assay; type: functional, cell-based; conditions: for IC50: PC-3, 48 h
[7] = test system: THP-1; assay: Growth inhibition of human THP1 cells at 100 uM after 48 hrs by SRB assay; type: functional; conditions: THP-1, 48 h, read-out: GI
[8] = test system: A549; assay: Growth inhibition of human A549 cells at 10 uM after 48 hrs by SRB assay; type: functional; conditions: A549, 48 h, read-out: GI
[9] = test system: Caco-2; assay: Growth inhibition of human Caco2 cells at 100 uM after 48 hrs by SRB assay; type: functional; conditions: Caco-2, 48 h, read-out: GI
[10] = test system: Caco-2; assay: Growth inhibition of human Caco2 cells after 48 hrs by SRB assay; type: functional, cell-based; conditions: for IC50: Caco-2, 48 h
[11] = test system: PC-3; assay: Growth inhibition of human PC3 cells at 50 uM after 48 hrs by SRB assay; type: functional; conditions: PC-3, 48 h, read-out: GI
[12] = test system: THP-1; assay: Growth inhibition of human THP1 cells at 50 uM after 48 hrs by SRB assay; type: functional; conditions: THP-1, 48 h, read-out: GI
[13] = test system: Caco-2; assay: Growth inhibition of human Caco2 cells at 10 uM after 48 hrs by SRB assay; type: functional; conditions: Caco-2, 48 h, read-out: GI
[14] = test system: PC-3; assay: Growth inhibition of human PC3 cells at 100 uM after 48 hrs by SRB assay; type: functional; conditions: PC-3, 48 h, read-out: GI
[15] = test system: PC-3; assay: Growth inhibition of human PC3 cells at 10 uM after 48 hrs by SRB assay; type: functional; conditions: PC-3, 48 h, read-out: GI
[16] = test system: THP-1; assay: Growth inhibition of human THP1 cells after 48 hrs by SRB assay; type: functional, cell-based; conditions: for IC50: THP-1, 48 h
[17] = test system: A549; assay: Growth inhibition of human A549 cells at 100 uM after 48 hrs by SRB assay; type: functional; conditions: A549, 48 h, read-out: GI
[18] = test system: THP-1; assay: Ratio of 5-fluorouracil IC50 to compound IC50 for human THP1 cells; type: functional
[19] = test system: A549; assay: Growth inhibition of human A549 cells after 48 hrs by SRB assay; type: functional, cell-based; conditions: for IC50: A549, 48 h
[20] = test system: THP-1; assay: Growth inhibition of human THP1 cells at 20 uM after 48 hrs by SRB assay; type: functional; conditions: THP-1, 48 h, read-out: GI
[21] = test system: Caco-2; assay: Growth inhibition of human Caco2 cells at 20 uM after 48 hrs by SRB assay; type: functional; conditions: Caco-2, 48 h, read-out: GI

Row | Structure (SMILES) | inhibition of growth at 10 µM [3] [%] | inhibition of growth at 50 µM [4] [%] | inhibition of growth at 50 µM [5] [%] | growth inhibition (GI) [6] | IC50 [6] [µM] | inhibition of growth at 100 µM [7] [%] | inhibition of growth at 10 µM [8] [%] | inhibition of growth at 100 µM [9] [%] | growth inhibition (GI) [10] | IC50 [10] [µM] | inhibition of growth at 50 µM [11] [%] | inhibition of growth at 50 µM [12] [%] | inhibition of growth at 10 µM [13] [%] | inhibition of growth at 100 µM [14] [%] | inhibition of growth at 10 µM [15] [%] | growth inhibition (GI) [16] | IC50 [16] [µM] | inhibition of growth at 100 µM [17] [%] | growth inhibition (GI) [19] | IC50 [19] [µM] | also measured
1 | CO[C@@]12[C@H](COC(N)=O)C3=C(C(=O)C(C)=C(N)C3=O)N1C[C@@H]1N[C@@H]12 [MITOMYCIN] | – | – | – | – | – | – | – | – | – | – | – | – | – | – | – | – | – | – | – | – | inhibition of growth at 1 µM [1]: 60%
2 | CC(=O)O[C@H]1C(=O)[C@@]2(C)[C@H]([C@H](OC(=O)c3ccccc3)[C@]3(O)C[C@H](OC(=O)[C@H](O)[C@@H](NC(=O)c4ccccc4)c4ccccc4)C(C)=C1C3(C)C)[C@]1(OC(C)=O)CO[C@@H]1C[C@@H]2O [PACLITAXEL] | – | – | – | – | – | – | – | – | – | – | – | – | – | – | – | – | – | – | – | – | inhibition of growth at 1 µM [2]: 69%
3 | O=C1C(=O)N(CCn2cc(CN3C(=O)C(=O)c4cc(Cl)ccc43)nn2)c2ccccc21 | 80 | 98 | 24 | Dose-dependent effect | < 1 | 100 | 94 | 38 | Dose-dependent effect | > 100 | 100 | 90 | 6 | 100 | 99 | Dose-dependent effect | < 1 | 100 | Dose-dependent effect | < 1 | Ratio IC50 [18]: 2
4 | Cc1ccc2c(c1)C(=O)C(=O)N2Cc1cn(CCN2C(=O)C(=O)c3ccccc32)nn1 | 89 | 99 | 0 | Dose-dependent effect | 3.03 | 100 | 35 | 17 | Dose-dependent effect | > 100 | 100 | 100 | 0 | 100 | 63 | Dose-dependent effect | < 1 | 100 | Dose-dependent effect | 18.4 | Ratio IC50 [18]: 2
5 | Cc1ccc2c(c1)C(=O)C(=O)N2Cc1cn(CCN2C(=O)C(=O)c3cc(Cl)ccc32)nn1 | 71 | 95 | 52 | Dose-dependent effect | 32.6 | 92 | 81 | 56 | Dose-dependent effect | 44.9 | 55 | 91 | 39 | 70 | 36 | Dose-dependent effect | < 1 | 98 | Dose-dependent effect | < 1 | Ratio IC50 [18]: 2
6 | O=C1C(=O)N(CCn2cc(CN3C(=O)C(=O)c4cc([N+](=O)[O-])ccc43)nn2)c2ccccc21 | 11 | 96 | 4 | Dose-dependent effect | 30.7 | 100 | 13 | 18 | Dose-dependent effect | > 100 | 97 | 97 | 0 | 99 | 24 | Dose-dependent effect | 42.8 | 98 | Dose-dependent effect | 39.2 | –
7 | O=C1C(=O)N(CCn2cc(CN3C(=O)C(=O)c4cc(F)ccc43)nn2)c2ccc(F)cc21 | 1 | 23 | 0 | Dose-dependent effect | > 100 | 92 | 5 | 10 | Dose-dependent effect | > 100 | 10 | 13 | 0 | 30 | 0 | Dose-dependent effect | 83.3 | 62 | Dose-dependent effect | 90.7 | –
8 | O=c1[nH]cc(F)c(=O)[nH]1 [FLUOROURACIL] | – | – | – | – | – | – | – | – | – | – | – | – | – | – | – | – | – | – | – | – | inhibition of growth at 20 µM [20]: 70%; inhibition of growth at 20 µM [21]: 68%
9 | O=C1C(=O)N(CCn2cc(CN3C(=O)C(=O)c4ccccc43)nn2)c2ccccc21 | 100 | 98 | 20 | Dose-dependent effect | < 1 | 100 | 96 | 36 | Dose-dependent effect | > 100 | 100 | 100 | 9 | 100 | 99 | Dose-dependent effect | < 1 | 99 | Dose-dependent effect | < 1 | Ratio IC50 [18]: 2
